SMILES strings stand for the structures. Where only a bound is given, the exact number is not on record here.

The target in this experiment is recombinant human His-ATG7 enzyme (Homo sapiens (Human), UniProt O95352). Description: ATG7 Enzyme Assay (HTRF/FRET, ATG3-GST and Flag-Gabarap). It is filed as biochemical. Particulars: for inhibition at 0.123 µM: Concentration 0.123 μM; for inhibition at 0.111 µM: Concentration 0.111 μM. In outline: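 0.15 nM His-ATG7 was reacted with 5 nM ATG3-GST, 5 nM Flag-Gabarap and 10 μM ATP in HEPES pH 7.5 containing MgCl2, GSH and TCEP for 105 min at 24° C, then stopped with EDTA/KF. Eu-anti-Flag and anti-GST-APC HTRF was read after 2 h. Results are given as single-concentration % inhibition or IC50.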
Sequence of recombinant human His-ATG7 enzyme (O95352 whole entry): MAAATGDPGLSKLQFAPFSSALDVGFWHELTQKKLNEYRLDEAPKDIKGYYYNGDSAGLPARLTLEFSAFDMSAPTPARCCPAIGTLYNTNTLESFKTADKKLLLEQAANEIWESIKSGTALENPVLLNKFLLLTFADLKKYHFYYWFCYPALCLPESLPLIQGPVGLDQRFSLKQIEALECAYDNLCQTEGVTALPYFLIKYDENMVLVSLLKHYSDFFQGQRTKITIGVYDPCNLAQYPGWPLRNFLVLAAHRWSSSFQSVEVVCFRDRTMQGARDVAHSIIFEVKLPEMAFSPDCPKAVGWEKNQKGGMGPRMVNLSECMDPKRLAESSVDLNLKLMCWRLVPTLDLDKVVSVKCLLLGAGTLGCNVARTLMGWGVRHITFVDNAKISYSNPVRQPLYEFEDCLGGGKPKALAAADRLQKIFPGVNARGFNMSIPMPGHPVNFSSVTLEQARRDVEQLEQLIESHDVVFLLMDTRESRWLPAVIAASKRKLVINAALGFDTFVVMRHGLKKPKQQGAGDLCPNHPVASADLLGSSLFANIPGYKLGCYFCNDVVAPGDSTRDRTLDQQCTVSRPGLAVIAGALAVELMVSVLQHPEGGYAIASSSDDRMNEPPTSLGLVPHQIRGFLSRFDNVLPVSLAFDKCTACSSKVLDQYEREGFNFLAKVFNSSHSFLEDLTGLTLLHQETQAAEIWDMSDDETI

As to `Nc1ncnc2c1c(SCc1cccc3ccccc13)nn2[C@@H]1O[C@H](COS(N)(=O)=O)[C@@H](O)[C@H]1O` [Compound I-67, [(2R,3S,4R,5R)-5-{4-amino-3-[(1-naphthylmethyl)sulfanyl]-1H-pyrazolo[3,4-d]pyrimidin-1-yl}-3,4-dihydroxytetrahydrofuran-2-yl]methyl sulfamate], the IC50 is 50 to 100 nM. Moreover, for the setting “read-out: Percent Inhibition”, the inhibition at 0.123 µM stood at 64%.
As for `Nc1ncnc2c1c(C1CC1)nn2[C@@H]1O[C@H](COS(N)(=O)=O)[C@@H](O)[C@@H]1F` [Compound I-108, [(2R,3R,4S,5R)-5-(4-amino-3-cyclopropyl-1H-pyrazolo[3,4-d]pyrimidin-1-yl)-4-fluoro-3-hydroxytetrahydrofuran-2-yl]methyl sulfamate], the IC50 is greater than 500 nM. For the same compound, the inhibition at 0.111 µM (read-out: Percent Inhibition) was 19%.
Turning to `Nc1ncnc2c1c(SC1CNC1)nn2[C@@H]1O[C@H](COS(N)(=O)=O)[C@@H](O)[C@H]1O` [Compound I-72, {(2R,3S,4R,5R)-5-[4-amino-3-(azetidin-3-ylsulfanyl)-1H-pyrazolo[3,4-d]pyrimidin-1-yl]-3,4-dihydroxytetrahydrofuran-2-yl}methyl sulfamate], the IC50 fell in the range of 50 to 100 nM. For the same compound, the inhibition at 0.123 µM (read-out: Percent Inhibition) came to 65%.
Turning to `Nc1ncnc2c1c(Sc1cccc3ccccc13)nn2[C@@H]1O[C@H](COS(N)(=O)=O)[C@@H](O)[C@H]1O` [Compound I-84, {(2R,3S,4R,5R)-5-[4-amino-3-(1-naphthylsulfanyl)-1H-pyrazolo[3,4-d]pyrimidin-1-yl]-3,4-dihydroxytetrahydrofuran-2-yl}methyl sulfamate], the IC50 was in the range of 50 to 100 nM. The inhibition at 0.123 µM (read-out: Percent Inhibition) was found to be 62%.
On to `Cc1cccc(Sc2nn([C@@H]3O[C@H](COS(N)(=O)=O)[C@@H](O)[C@@H]3F)c3ncnc(N)c23)c1` [Compound I-141, [(2R,3R,4S,5R)-5-{4-amino-3-[(3-methylphenyl)sulfanyl]-1H-pyrazolo[3,4-d]pyrimidin-1-yl}-4-fluoro-3-hydroxytetrahydrofuran-2-yl]methyl Sulfamate], for which the IC50 was 20 to 50 nM. Further, the inhibition at 0.123 µM (read-out: Percent Inhibition) stood at 76%.
For `Cc1ccnc(Sc2nn([C@@H]3O[C@H](COS(N)(=O)=O)[C@@H](O)[C@@H]3F)c3ncnc(N)c23)c1` [Compound I-114, [(2R,3R,4S,5R)-5-{4-amino-3-[(4-methylpyridin-2-yl)sulfanyl]-1H-pyrazolo[3,4-d]pyrimidin-1-yl}-4-fluoro-3-hydroxytetrahydrofuran-2-yl]methyl sulfamate], the IC50 is less than 20 nM. In addition, the inhibition at 0.111 µM (read-out: Percent Inhibition) is 90%.
`Nc1ncnc2c1c(OCCCl)nn2[C@@H]1O[C@H](COS(N)(=O)=O)[C@@H](O)[C@H]1O` [Compound I-75, {(2R,3S,4R,5R)-5-[4-amino-3-(2-chloroethoxy)-1H-pyrazolo[3,4-d]pyrimidin-1-yl]-3,4-dihydroxytetrahydrofuran-2-yl}methyl Sulfamate]: the IC50 was in the range of 100 to 500 nM. Further, for the setting “read-out: Percent Inhibition”, the inhibition at 0.123 µM was 41%.
On to `Nc1ncnc2c1c(Sc1ccc3c(c1)CCO3)nn2[C@H]1C[C@H](O)[C@@H](COS(N)(=O)=O)O1` [Compound I-186, {(2R,3S,5R)-5-[4-amino-3-(2,3-dihydro-1-benzofuran-5-ylsulfanyl)-1H-pyrazolo[3,4-d]pyrimidin-1-yl]-3-hydroxytetrahydrofuran-2-yl}methyl sulfamate], for which the IC50 was in the range of 20 to 50 nM. Where the note is “read-out: Percent Inhibition”, the inhibition at 0.111 µM amounted to 74%.
With `CSCc1nn([C@@H]2O[C@H](COS(N)(=O)=O)[C@@H](O)[C@H]2O)c2ncnc(N)c12` [Compound I-93, [(2R,3S,4R,5R)-5-{4-amino-3-[(methylsulfanyl)methyl]-1H-pyrazolo[3,4-d]pyrimidin-1-yl}-3,4-dihydroxytetrahydrofuran-2-yl]methyl Sulfamate], the half-inhibitory concentration (IC50) lay within 100 to 500 nM. In addition, for the setting “read-out: Percent Inhibition”, the inhibition at 0.123 µM was 47%.
Regarding `CN(C)C(=O)CSc1nn([C@H]2C[C@H](O)[C@@H](COS(N)(=O)=O)O2)c2ncnc(N)c12` [Compound I-180, [(2R,3S,5R)-5-(4-amino-3-{[2-(dimethylamino)-2-oxoethyl]sulfanyl}-1H-pyrazolo[3,4-d]pyrimidin-1-yl)-3-hydroxytetrahydrofuran-2-yl]methyl sulfamate], the IC50 lay within 100 to 500 nM. In addition, where the note is “read-out: Percent Inhibition”, the inhibition at 0.111 µM was 29%.
For `N#CCSc1nn([C@H]2C[C@H](O)[C@@H](COS(N)(=O)=O)O2)c2ncnc(N)c12` [Compound I-188, [(2R,3S,5R)-5-{4-amino-3-[(cyanomethyl)sulfanyl]-1H-pyrazolo[3,4-d]pyrimidin-1-yl}-3-hydroxytetrahydrofuran-2-yl]methyl sulfamate], the IC50 lay in the range of 100 to 500 nM. In addition, for the setting “read-out: Percent Inhibition”, the inhibition at 0.111 µM stood at 37%.
Take `Nc1ncnc2c1c(Sc1cccc(Cl)c1)nn2[C@@H]1O[C@H](COS(N)(=O)=O)[C@@H](O)[C@H]1O` [Compound I-40, [(2R,3S,4R,5R)-5-{4-amino-3-[(3-chlorophenyl)sulfanyl]-1H-pyrazolo[3,4-d]pyrimidin-1-yl}-3,4-dihydroxytetrahydrofuran-2-yl]methyl sulfamate]: the IC50 was less than 20 nM. Further, the inhibition at 0.123 µM (read-out: Percent Inhibition) was 85%.
In the case of `Cc1ccc(Sc2nn([C@H]3C[C@H](O)[C@@H](COS(N)(=O)=O)O3)c3ncnc(N)c23)c(F)c1` [Compound I-161, [(2R,3S,5R)-5-{4-amino-3-[(2-fluoro-4-methylphenyl)sulfanyl]-1H-pyrazolo[3,4-d]pyrimidin-1-yl}-3-hydroxytetrahydrofuran-2-yl]methyl Sulfamate], the IC50 was in the range of 50 to 100 nM. Moreover, the inhibition at 0.111 µM (read-out: Percent Inhibition) was 59%.
`Nc1ncnc2c1c(SCC(F)(F)F)nn2[C@@H]1O[C@H](COS(N)(=O)=O)[C@@H](O)[C@H]1O` [Compound I-83, [(2R,3S,4R,5R)-5-{4-amino-3-[(2,2,2-trifluoroethyl)sulfanyl]-1H-pyrazolo[3,4-d]pyrimidin-1-yl}-3,4-dihydroxytetrahydrofuran-2-yl]methyl sulfamate]: the IC50 was in the range of 20 to 50 nM. Moreover, for the setting “read-out: Percent Inhibition”, the inhibition at 0.123 µM was 82%.
For `Cc1occc1Sc1nn([C@@H]2O[C@H](COS(N)(=O)=O)[C@@H](O)[C@H]2O)c2ncnc(N)c12` [Compound I-81, [(2R,3S,4R,5R)-5-{4-amino-3-[(2-methyl-3-furyl)sulfanyl]-1H-pyrazolo[3,4-d]pyrimidin-1-yl}-3,4-dihydroxytetrahydrofuran-2-yl]methyl sulfamate], the concentration for half-maximal inhibition (IC50) fell in the range of 50 to 100 nM. Besides, for the setting “read-out: Percent Inhibition”, the inhibition at 0.123 µM turned out to be 69%.
As for `NC(=S)c1nn([C@@H]2O[C@H](COS(N)(=O)=O)[C@@H](O)[C@H]2O)c2ncnc(N)c12` [Compound I-60, [(2R,3S,4R,5R)-5-(4-amino-3-carbamothioyl-1H-pyrazolo[3,4-d]pyrimidin-1-yl)-3,4-dihydroxytetrahydrofuran-2-yl]methyl Sulfamate], the IC50 is 50 to 100 nM. Further, for the setting “read-out: Percent Inhibition”, the inhibition at 0.123 µM amounted to 59%.
In the case of `NCC#Cc1nn([C@@H]2O[C@H](COS(N)(=O)=O)[C@@H](O)[C@H]2O)c2ncnc(N)c12` [Compound I-17, {(2R,3S,4R,5R)-5-[4-amino-3-(3-aminoprop-1-yn-1-yl)-1H-pyrazolo[3,4-d]pyrimidin-1-yl]-3,4-dihydroxytetrahydrofuran-2-yl}methyl Sulfamate], the IC50 is greater than 500 nM. Also, the inhibition at 0.069 µM (Concentration 0.069 μM, read-out: Percent Inhibition) is 10%.
On to `Cn1cc(CSc2nn([C@@H]3O[C@H](COS(N)(=O)=O)[C@@H](O)[C@@H]3F)c3ncnc(N)c23)cn1` [Compound I-145, [(2R,3R,4S,5R)-5-(4-amino-3-{[(1-methyl-1H-pyrazol-4-yl)methyl]sulfanyl}-1H-pyrazolo[3,4-d]pyrimidin-1-yl)-4-fluoro-3-hydroxytetrahydrofuran-2-yl]methyl sulfamate], for which the IC50 was in the range of 20 to 50 nM. Under “read-out: Percent Inhibition”, the inhibition at 0.111 µM is 74%.
Regarding `Cc1cc(Sc2nn([C@@H]3O[C@H](COS(N)(=O)=O)[C@@H](O)[C@@H]3F)c3ncnc(N)c23)c(C)o1` [Compound I-110, [(2R,3R,4S,5R)-5-{4-amino-3-[(2,5-dimethyl-3-furyl)sulfanyl]-1H-pyrazolo[3,4-d]pyrimidin-1-yl}-4-fluoro-3-hydroxytetrahydrofuran-2-yl]methyl sulfamate], the IC50 lay in the range of 50 to 100 nM. The inhibition at 0.111 µM (read-out: Percent Inhibition) came out at 56%.
In the case of `Cc1ccccc1CSc1nn([C@@H]2O[C@H](COS(N)(=O)=O)[C@@H](O)[C@H]2O)c2ncnc(N)c12` [Compound I-39, [(2R,3S,4R,5R)-5-{4-amino-3-[(2-methylbenzyl)sulfanyl]-1H-pyrazolo[3,4-d]pyrimidin-1-yl}-3,4-dihydroxytetrahydrofuran-2-yl]methyl sulfamate], the IC50 fell in the range of 20 to 50 nM. Also, the inhibition at 0.123 µM (read-out: Percent Inhibition) is 75%.
For `Nc1ncnc2c1c(Sc1ccc3c(c1)OCC3)nn2[C@H]1C[C@H](O)[C@@H](COS(N)(=O)=O)O1` [Compound I-168, {(2R,3S,5R)-5-[4-amino-3-(2,3-dihydro-1-benzofuran-6-ylsulfanyl)-1H-pyrazolo[3,4-d]pyrimidin-1-yl]-3-hydroxytetrahydrofuran-2-yl}methyl sulfamate], the IC50 lay within 20 to 50 nM. For the same compound, where the note is “read-out: Percent Inhibition”, the inhibition at 0.111 µM amounted to 77%.
For the compound `CCSc1nn([C@H]2C[C@H](O)[C@@H](COS(N)(=O)=O)O2)c2ncnc(N)c12` [Compound I-172, {(2R,3S,5R)-5-[4-amino-3-(ethylsulfanyl)-1H-pyrazolo[3,4-d]pyrimidin-1-yl]-3-hydroxytetrahydrofuran-2-yl}methyl Sulfamate], the IC50 lay in the range of 50 to 100 nM. Also, the inhibition at 0.111 µM (read-out: Percent Inhibition) was 68%.
`COC(=O)c1nn([C@@H]2O[C@H](COS(N)(=O)=O)C(O)C2O)c2ncnc(N)c12` (stereo in doubt) [Compound I-20, methyl 4-amino-1-{(2R,3S,4R,5R)-3,4-dihydroxy-5-[(sulfamoyloxy)methyl]tetrahydrofuran-2-yl}-1H-pyrazolo[3,4-d]pyrimidine-3-carboxylate]: the IC50 was in the range of 100 to 500 nM. Besides, the inhibition at 0.123 µM (read-out: Percent Inhibition) came out at 45%.

The values above are taken from patent US10865208B2, “ATG7 inhibitors and the uses thereof” (Millennium Pharmaceuticals, Inc., priority 2016, dated 2020).
